Experiments:
[1] = molecular target: 5-hydroxytryptamine receptor 1A (Homo sapiens, UniProt P08908); assay: GPCRScan assay: inhibition of 5-HT1A; design: radioligand conc. used [nm] 0.5 – 1.0, parental cells stable CHO
[2] = molecular target: Sodium-dependent dopamine transporter (Homo sapiens, UniProt Q01959); assay: GPCRScan assay: inhibition of DAT; design: radioligand conc. used [nm] 3.6 – 16.0, parental cells stable HEK
[3] = molecular target: Voltage-dependent N-type calcium channel subunit alpha-1B (Homo sapiens) (UniProt Q00975); assay: Inhibition of Calcium Channel N-Type at 10 µM in the Eurofins-Panlabs radioligand binding assay (Eurofins_assay_216000); conditions: Rattus norvegicus; Compound concentration 10.0 uM
Voltage-dependent N-type calcium channel subunit alpha-1B (Homo sapiens), sequence (Q00975 whole entry, looked up): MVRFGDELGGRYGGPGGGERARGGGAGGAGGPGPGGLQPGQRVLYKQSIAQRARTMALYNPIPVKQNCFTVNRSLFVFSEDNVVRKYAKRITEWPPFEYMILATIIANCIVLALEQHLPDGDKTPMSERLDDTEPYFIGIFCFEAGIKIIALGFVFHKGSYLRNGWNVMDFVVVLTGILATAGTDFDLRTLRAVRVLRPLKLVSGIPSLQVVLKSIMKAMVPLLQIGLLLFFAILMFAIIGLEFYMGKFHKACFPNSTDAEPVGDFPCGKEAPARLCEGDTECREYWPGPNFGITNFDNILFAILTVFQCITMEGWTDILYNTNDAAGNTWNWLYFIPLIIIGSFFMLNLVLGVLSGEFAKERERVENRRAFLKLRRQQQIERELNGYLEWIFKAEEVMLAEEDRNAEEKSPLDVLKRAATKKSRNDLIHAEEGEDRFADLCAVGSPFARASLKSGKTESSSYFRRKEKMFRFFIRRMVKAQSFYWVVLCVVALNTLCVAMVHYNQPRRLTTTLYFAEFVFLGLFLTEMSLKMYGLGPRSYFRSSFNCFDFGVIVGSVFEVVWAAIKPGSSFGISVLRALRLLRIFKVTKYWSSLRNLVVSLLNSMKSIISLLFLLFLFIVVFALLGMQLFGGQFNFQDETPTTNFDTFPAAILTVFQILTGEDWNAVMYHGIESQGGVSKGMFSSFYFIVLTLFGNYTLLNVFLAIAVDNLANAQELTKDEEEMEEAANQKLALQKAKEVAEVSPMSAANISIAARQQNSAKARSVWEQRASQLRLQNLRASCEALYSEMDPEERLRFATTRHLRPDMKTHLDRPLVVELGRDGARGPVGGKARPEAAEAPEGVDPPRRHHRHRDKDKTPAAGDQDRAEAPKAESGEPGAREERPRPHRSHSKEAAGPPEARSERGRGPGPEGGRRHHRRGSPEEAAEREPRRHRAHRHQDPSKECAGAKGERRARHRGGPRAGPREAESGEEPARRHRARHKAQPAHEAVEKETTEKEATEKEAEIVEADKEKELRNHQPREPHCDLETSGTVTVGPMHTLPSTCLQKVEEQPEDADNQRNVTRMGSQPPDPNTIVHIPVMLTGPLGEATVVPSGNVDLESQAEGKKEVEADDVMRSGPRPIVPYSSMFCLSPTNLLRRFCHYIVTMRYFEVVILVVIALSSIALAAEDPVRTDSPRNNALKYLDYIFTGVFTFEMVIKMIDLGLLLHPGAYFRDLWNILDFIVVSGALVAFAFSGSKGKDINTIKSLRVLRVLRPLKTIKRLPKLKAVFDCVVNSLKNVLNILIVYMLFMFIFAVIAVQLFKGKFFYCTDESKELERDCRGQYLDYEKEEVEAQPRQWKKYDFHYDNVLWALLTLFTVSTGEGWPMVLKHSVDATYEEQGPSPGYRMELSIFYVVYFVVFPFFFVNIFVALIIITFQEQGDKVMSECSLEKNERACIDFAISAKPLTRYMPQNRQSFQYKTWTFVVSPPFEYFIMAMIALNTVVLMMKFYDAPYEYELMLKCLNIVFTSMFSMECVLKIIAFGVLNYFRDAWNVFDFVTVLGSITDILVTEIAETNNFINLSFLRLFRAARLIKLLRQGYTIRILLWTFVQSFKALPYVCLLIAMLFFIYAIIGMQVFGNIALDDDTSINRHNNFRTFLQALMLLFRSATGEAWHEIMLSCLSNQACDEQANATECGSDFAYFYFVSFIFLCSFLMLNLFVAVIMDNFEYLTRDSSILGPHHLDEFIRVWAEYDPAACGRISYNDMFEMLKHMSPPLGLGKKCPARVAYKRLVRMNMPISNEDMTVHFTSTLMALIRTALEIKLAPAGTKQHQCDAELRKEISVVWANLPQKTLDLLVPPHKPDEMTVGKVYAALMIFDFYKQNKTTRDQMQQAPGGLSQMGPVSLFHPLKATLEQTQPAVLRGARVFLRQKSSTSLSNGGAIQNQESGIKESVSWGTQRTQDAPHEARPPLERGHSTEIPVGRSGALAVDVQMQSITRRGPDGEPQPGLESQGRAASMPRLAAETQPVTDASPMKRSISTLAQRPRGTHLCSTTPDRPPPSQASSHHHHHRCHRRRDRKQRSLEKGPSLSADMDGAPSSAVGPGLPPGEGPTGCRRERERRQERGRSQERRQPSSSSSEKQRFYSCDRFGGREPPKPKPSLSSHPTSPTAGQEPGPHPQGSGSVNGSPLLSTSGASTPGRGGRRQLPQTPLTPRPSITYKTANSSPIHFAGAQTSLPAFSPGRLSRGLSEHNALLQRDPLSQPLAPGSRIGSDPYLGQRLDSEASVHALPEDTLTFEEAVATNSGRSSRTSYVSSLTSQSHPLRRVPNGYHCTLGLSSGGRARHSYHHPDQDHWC

[4] = molecular target: Gamma-aminobutyric acid type B receptor subunit 1 (Homo sapiens) (UniProt Q9UBS5); assay: Inhibition of GABAB1A at compound concentration of 10.0 uM in the Eurofins-Panlabs radioligand binding assay (Eurofins_assay_228610); design: ligand concentration 4 nM; conditions: Compound concentration 10.0 uM
[5] = molecular target: Cysteinyl leukotriene receptor 1 (Homo sapiens) (UniProt Q9Y271); assay: Inhibition of Leukotriene, Cysteinyl CysLT1 at 10 µM in the Eurofins-Panlabs radioligand binding assay (Eurofins_assay_250460); design: ligand concentration 0.3 nM, non-specific ligand with concentration 0.3 µM Leukotriene D4, incubation time 30 min, incubation temperature 25 °C; conditions: Compound concentration 10.0 uM
[6] = molecular target: Tyrosine-protein kinase receptor Tie-1 (Homo sapiens) (UniProt P35590); assay: TIE1 DiscoveRx kinase panel; conditions: Compound concentration 1.0 uM
[7] = molecular target: Serine/threonine-protein kinase MARK2 (Homo sapiens) (UniProt Q7KZI7); assay: MARK2 DiscoveRx kinase panel; conditions: Compound concentration 1.0 uM
[8] = molecular target: Calcium/calmodulin-dependent protein kinase type IV (Homo sapiens) (UniProt Q16566); assay: CAMK4 DiscoveRx kinase panel; conditions: Compound concentration 1.0 uM
[9] = molecular target: Serine/threonine-protein kinase 32A (Homo sapiens) (UniProt Q8WU08); assay: YANK1 DiscoveRx kinase panel; conditions: Compound concentration 1.0 uM
[10] = molecular target: Mitogen-activated protein kinase kinase kinase kinase 1 (Homo sapiens) (UniProt Q92918); assay: HPK1 DiscoveRx kinase panel; conditions: Compound concentration 1.0 uM
[11] = molecular target: Serine/threonine-protein kinase Nek1 (Homo sapiens) (UniProt Q96PY6); assay: NEK1 DiscoveRx kinase panel; conditions: Compound concentration 1.0 uM
[12] = molecular target: Mitogen-activated protein kinase 8 (Homo sapiens) (UniProt P45983); assay: JNK1 DiscoveRx kinase panel; conditions: Compound concentration 1.0 uM
[13] = molecular target: Serine/threonine-protein kinase 3 (Homo sapiens) (UniProt Q13188); assay: MST2 DiscoveRx kinase panel; conditions: Compound concentration 1.0 uM
[14] = molecular target: Serine/threonine-protein kinase 32B (Homo sapiens) (UniProt Q9NY57); assay: YANK2 DiscoveRx kinase panel; conditions: Compound concentration 1.0 uM
Serine/threonine-protein kinase 32B (Homo sapiens), sequence (Q9NY57 whole entry): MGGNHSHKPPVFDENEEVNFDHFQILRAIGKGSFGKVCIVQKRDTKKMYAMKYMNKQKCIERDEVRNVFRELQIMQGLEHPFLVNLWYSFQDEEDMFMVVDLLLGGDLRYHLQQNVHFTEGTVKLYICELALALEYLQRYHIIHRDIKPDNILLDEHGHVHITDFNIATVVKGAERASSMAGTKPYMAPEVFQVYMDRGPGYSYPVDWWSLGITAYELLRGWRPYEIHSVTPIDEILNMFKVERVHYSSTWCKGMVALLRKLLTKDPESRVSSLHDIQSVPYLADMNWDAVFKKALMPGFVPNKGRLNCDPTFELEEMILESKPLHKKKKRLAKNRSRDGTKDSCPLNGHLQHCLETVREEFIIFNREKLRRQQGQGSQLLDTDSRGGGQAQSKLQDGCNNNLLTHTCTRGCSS

[15] = molecular target: Serine/threonine-protein kinase WNK1 (Homo sapiens) (UniProt Q9H4A3); assay: WNK1 DiscoveRx kinase panel; conditions: Compound concentration 1.0 uM
[16] = molecular target: Cyclin-dependent kinase 17 (Homo sapiens) (UniProt Q00537); assay: PCTK2 DiscoveRx kinase panel; conditions: Compound concentration 1.0 uM
[17] = molecular target: SRSF protein kinase 3 (Homo sapiens) (UniProt Q9UPE1); assay: SRPK3 DiscoveRx kinase panel; conditions: Compound concentration 1.0 uM
[18] = molecular target: SRSF protein kinase 1 (Homo sapiens) (UniProt Q96SB4); assay: SRPK1 DiscoveRx kinase panel; conditions: Compound concentration 1.0 uM
[19] = molecular target: Activin receptor type-2B (Homo sapiens) (UniProt Q13705); assay: ACVR2B DiscoveRx kinase panel; conditions: Compound concentration 1.0 uM
[20] = molecular target: Calcium/calmodulin-dependent protein kinase type 1B (Homo sapiens) (UniProt Q6P2M8); assay: CAMK1B DiscoveRx kinase panel; conditions: Compound concentration 1.0 uM
[21] = molecular target: Dual specificity tyrosine-phosphorylation-regulated kinase 1A (Homo sapiens) (UniProt Q13627); assay: DYRK1A DiscoveRx kinase panel; conditions: Compound concentration 1.0 uM
[22] = molecular target: LIM domain kinase 2 (Homo sapiens) (UniProt P53671); assay: LIMK2 DiscoveRx kinase panel; conditions: Compound concentration 1.0 uM
[23] = molecular target: Mitogen-activated protein kinase 13 (Homo sapiens) (UniProt O15264); assay: p38-delta DiscoveRx kinase panel; conditions: Compound concentration 1.0 uM
[24] = molecular target: AP2-associated protein kinase 1 (Homo sapiens) (UniProt Q2M2I8); assay: AAK1 DiscoveRx kinase panel; conditions: Compound concentration 1.0 uM
[25] = molecular target: Calcium/calmodulin-dependent protein kinase type II subunit gamma (Homo sapiens) (UniProt Q13555); assay: CAMK2G DiscoveRx kinase panel; conditions: Compound concentration 1.0 uM
[26] = molecular target: Calcium/calmodulin-dependent protein kinase kinase 1 (Homo sapiens) (UniProt Q8N5S9); assay: CAMKK1 DiscoveRx kinase panel; conditions: Compound concentration 1.0 uM
Calcium/calmodulin-dependent protein kinase kinase 1 (Homo sapiens), sequence (Q8N5S9 whole entry, looked up): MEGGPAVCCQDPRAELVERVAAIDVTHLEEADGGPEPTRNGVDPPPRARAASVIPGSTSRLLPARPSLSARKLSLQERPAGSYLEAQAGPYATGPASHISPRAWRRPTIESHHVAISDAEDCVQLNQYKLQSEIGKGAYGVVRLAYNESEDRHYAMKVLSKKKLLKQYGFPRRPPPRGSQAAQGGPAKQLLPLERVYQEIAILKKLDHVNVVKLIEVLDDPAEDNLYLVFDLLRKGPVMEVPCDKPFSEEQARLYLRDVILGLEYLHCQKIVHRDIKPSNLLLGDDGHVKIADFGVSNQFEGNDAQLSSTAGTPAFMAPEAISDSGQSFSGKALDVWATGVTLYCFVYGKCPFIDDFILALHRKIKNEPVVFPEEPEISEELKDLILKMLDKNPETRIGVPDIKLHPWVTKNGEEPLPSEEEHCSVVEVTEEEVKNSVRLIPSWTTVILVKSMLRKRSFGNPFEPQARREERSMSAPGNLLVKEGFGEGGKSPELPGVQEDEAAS

[27] = molecular target: Ephrin type-B receptor 2 (Homo sapiens) (UniProt P29323); assay: EPHB2 DiscoveRx kinase panel; conditions: Compound concentration 1.0 uM
[28] = molecular target: Tyrosine-protein kinase Fer (Homo sapiens) (UniProt P16591); assay: FER DiscoveRx kinase panel; conditions: Compound concentration 1.0 uM
Tyrosine-protein kinase Fer (Homo sapiens), sequence (P16591 whole entry, looked up): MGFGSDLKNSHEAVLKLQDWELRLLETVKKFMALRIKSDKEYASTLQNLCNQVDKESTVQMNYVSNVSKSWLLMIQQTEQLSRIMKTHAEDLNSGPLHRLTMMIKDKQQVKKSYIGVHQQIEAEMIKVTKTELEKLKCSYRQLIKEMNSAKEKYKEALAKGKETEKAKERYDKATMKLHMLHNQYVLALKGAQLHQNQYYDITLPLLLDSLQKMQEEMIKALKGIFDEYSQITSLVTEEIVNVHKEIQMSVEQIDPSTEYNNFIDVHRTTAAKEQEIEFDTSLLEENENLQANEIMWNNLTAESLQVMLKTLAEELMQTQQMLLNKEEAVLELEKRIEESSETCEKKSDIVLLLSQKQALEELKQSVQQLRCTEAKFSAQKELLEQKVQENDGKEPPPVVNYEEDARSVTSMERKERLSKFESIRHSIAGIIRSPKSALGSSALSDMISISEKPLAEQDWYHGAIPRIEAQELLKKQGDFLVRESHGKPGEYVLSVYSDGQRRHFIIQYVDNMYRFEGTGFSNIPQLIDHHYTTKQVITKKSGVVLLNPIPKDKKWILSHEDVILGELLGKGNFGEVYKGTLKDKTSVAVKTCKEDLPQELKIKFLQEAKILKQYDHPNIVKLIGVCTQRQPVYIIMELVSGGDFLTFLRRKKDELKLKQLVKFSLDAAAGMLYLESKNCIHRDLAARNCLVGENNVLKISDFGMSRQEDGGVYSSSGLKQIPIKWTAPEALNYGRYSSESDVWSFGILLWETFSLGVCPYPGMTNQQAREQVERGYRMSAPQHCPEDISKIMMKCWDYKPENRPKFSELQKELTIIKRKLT

[29] = molecular target: Glycogen synthase kinase-3 beta (Homo sapiens) (UniProt P49841); assay: GSK3B DiscoveRx kinase panel; conditions: Compound concentration 1.0 uM
[30] = molecular target: Leucine-rich repeat serine/threonine-protein kinase 2 (Homo sapiens) (UniProt Q5S007); assay: LRRK2 DiscoveRx kinase panel; conditions: Compound concentration 1.0 uM
[31] = molecular target: MAP/microtubule affinity-regulating kinase 4 (Homo sapiens) (UniProt Q96L34); assay: MARK4 DiscoveRx kinase panel; conditions: Compound concentration 1.0 uM
[32] = molecular target: Serine/threonine-protein kinase D2 (Homo sapiens) (UniProt Q9BZL6); assay: PRKD2 DiscoveRx kinase panel; conditions: Compound concentration 1.0 uM
[33] = molecular target: Ribosomal protein S6 kinase alpha-4 (Homo sapiens) (UniProt O75676); assay: RPS6KA4(Kin.Dom.2-C-terminal) DiscoveRx kinase panel; conditions: Compound concentration 1.0 uM
[34] = molecular target: Serine/threonine-protein kinase SBK1 (Homo sapiens) (UniProt Q52WX2); assay: SBK1 DiscoveRx kinase panel; conditions: Compound concentration 1.0 uM
[35] = molecular target: Vascular endothelial growth factor receptor 2 (Homo sapiens) (UniProt P35968); assay: VEGFR2 DiscoveRx kinase panel; conditions: Compound concentration 1.0 uM
[36] = molecular target: C-X-C chemokine receptor type 2 (Homo sapiens) (UniProt P25025); assay: Chemokine CXCR2 (IL-8RB) Eurofins-Panlabs radioligand binding assay; conditions: Compound concentration 10.0 uM
C-X-C chemokine receptor type 2 (Homo sapiens), sequence (P25025 whole entry): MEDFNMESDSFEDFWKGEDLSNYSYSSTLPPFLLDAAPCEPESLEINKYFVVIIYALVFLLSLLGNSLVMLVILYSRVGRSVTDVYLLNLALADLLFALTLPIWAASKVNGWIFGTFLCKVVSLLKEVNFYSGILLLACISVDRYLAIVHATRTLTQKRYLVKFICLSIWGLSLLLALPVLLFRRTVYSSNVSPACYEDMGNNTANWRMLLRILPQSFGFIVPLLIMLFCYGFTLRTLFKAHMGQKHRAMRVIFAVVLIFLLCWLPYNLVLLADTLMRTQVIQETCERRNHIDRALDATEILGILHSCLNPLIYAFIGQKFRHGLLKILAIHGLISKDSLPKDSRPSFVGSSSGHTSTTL

[37] = test system: MDA-MB-436; assay: MDA-MB-436 cell line Proliferation assay; assay type: functional, Homo sapiens; conditions: time 4 day
[38] = test system: HT1197; assay: HT-1197 cell line Proliferation assay; assay type: functional, Homo sapiens; conditions: time 4 day
[39] = molecular target: T1, Alpha-2A adrenergic receptor (Homo sapiens) (UniProt P08913); conditions: Compound concentration 10.0 uM
T1 sequence (whole entry): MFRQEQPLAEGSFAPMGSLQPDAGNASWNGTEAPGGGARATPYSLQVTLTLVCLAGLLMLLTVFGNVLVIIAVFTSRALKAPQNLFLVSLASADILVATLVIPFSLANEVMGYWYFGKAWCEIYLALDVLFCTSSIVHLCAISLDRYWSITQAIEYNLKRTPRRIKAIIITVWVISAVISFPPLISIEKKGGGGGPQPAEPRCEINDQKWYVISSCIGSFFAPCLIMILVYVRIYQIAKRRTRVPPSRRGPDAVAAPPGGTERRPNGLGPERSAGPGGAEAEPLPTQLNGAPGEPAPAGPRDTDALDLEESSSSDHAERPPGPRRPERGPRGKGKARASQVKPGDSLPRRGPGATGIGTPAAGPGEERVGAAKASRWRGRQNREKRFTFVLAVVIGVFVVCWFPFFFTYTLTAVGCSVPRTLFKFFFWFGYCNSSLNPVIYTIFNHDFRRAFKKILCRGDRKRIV

[40] = molecular target: Beta-3 adrenergic receptor (Homo sapiens) (UniProt P13945); conditions: Compound concentration 10.0 uM
[41] = molecular target: T1, Alpha-2A adrenergic receptor (Homo sapiens); conditions: Compound concentration 10.0 uM; remark: listed apart in the source

Sodium-dependent dopamine transporter, sequence (Q01959 whole entry): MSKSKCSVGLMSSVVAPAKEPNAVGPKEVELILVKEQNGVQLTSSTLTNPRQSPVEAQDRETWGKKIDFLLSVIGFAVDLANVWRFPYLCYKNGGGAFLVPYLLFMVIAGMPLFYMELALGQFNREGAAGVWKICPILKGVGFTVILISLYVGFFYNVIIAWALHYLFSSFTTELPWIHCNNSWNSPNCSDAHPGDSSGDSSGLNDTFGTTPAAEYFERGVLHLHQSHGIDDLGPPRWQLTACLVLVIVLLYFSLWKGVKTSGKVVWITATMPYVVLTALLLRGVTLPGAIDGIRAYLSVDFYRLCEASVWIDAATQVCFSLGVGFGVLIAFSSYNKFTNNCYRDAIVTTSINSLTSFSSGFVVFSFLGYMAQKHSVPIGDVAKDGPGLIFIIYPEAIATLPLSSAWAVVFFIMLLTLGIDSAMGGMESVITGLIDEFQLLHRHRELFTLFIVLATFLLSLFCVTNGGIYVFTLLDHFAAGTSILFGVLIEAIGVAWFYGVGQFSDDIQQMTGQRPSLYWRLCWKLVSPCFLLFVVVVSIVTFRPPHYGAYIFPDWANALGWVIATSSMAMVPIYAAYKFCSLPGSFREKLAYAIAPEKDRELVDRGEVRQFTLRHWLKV

For COc1cnccc1Nc1nc(-c2nn(Cc3c(F)cc(OCCO)cc3F)c3ccccc23)ncc1OC, the Ki [1] was 9.44 µM, the pKi [2] was < 5 and the Ki ([2]; read-out: Ki) was > 10 µM. It also gave an inhibition [3] of 10%, an inhibition [4] of -2% and an inhibition [5] of 32%. For the same compound, the residual activity [6] was 65%, the residual activity [7] was 67% and the residual activity [8] was 68%. For the same compound, the residual activity [9] was 71%, the residual activity [10] was 77% and the residual activity [11] was 78%. For the same compound, the residual activity [12] was 79%, the residual activity [13] was 82% and the residual activity [14] was 82%. The residual activity [15] was 85%, the residual activity [16] was 87% and the residual activity [17] was 87%. For the same compound, the residual activity [18] was 90%, the residual activity [19] was 94% and the residual activity [20] was 95%. For the same compound, the residual activity [21] was 96%, the residual activity [22] was 97% and the residual activity [23] was 99%. It also gave a residual activity [24] of 100%, a residual activity [25] of 100% and a residual activity [26] of 100%. The residual activity [27] was 100%, the residual activity [28] was 100% and the residual activity [29] was 100%. The residual activity [30] was 100%, the residual activity [31] was 100% and the residual activity [32] was 100%. For the same compound, the residual activity [33] was 100%, the residual activity [34] was 100% and the residual activity [35] was 100%. For the same compound, the inhibition [36] was -3%, the “Cell Proliferation IC50” value [37] was 1.2 µM and the “Cell Proliferation IC50” value [38] was 4.9 µM. It also gave an inhibition [39] of 7.49%, an inhibition [40] of 4.26% and an inhibition [41] of 2%.

Reference: ChEMBL document CHEMBL5058649, “Data for DCP probe BAY 1816032” (2022)
